Patent US8835134B2, “Cycloastragenol monoglucoside, preparation, pharmaceutical composition and application thereof” (Tianjin Institute of Pharmaceutical Research, priority 2007, dated 2014)

Tested on: anesthetized open-chest dogs
Assay: Hemodynamics of anesthetized open-chest dogs, intravenous infusion
Type: in vivo, mongrel dogs
Conditions: 0.3 mg/kg iv
Description: The animals were anesthetized by intravenous injection of 30 mg/kg sodium pentobarbital, tracheally intubated, and mechanically ventilated with positive air pressure. Left thoracotomy was performed through the fourth intercostal space and the heart was suspended in a pericardial cradle, the aortic root was isolated and a probe of blood flow meter (12 or 14 mm in diameter) was fixed to measure the aortic blood flow as a representation of cardiac output (CO), the circumflex branch of left coronary artery was isolated and a probe of blood flow meter (2 or 2.5 mm in diameter) was fixed to measure the coronary blood flow (CBF). A polyethylene catheter filled with heparin physiological saline was inserted through cardiac apex into the left ventricle to measure the left ventricular pressure (LVP) and left ventricular end-diastolic pressure (LVEDP), Peak positive and peak negative first derivatives of the LVP (+ LVdp/dt and − LVdp/dt) were calculated with the Acknowledge software. The systolic blood pressure (SBP), diastolic blood pressure (DBP) and mean arterial pressure (MAP) were measured by polyethylene catheter via the femoral artery, ECG □ was measured by a AC-601G ECG amplifier. The above-mentioned analog signal was input into a data acquisition workstation (MP100, BIOPAC Systems, USA) to a computer running Acknowledge (version 3.7.1).
After surgery, various indexes before administration were recorded until the indexes were stable, and then intravenous infusion administration was conducted. Thirty dogs were divided into five groups (six dogs in each group), the experiment groups were given 0.15, 0.3, 0.6 mg/kg of ASP-[…] respectively, the normal control group was given 1 ml/kg of solvent, and the positive control group was given 0.3 mg/kg of astragaloside IV. The delivery volumes were 15 ml for each dog was and the delivery velocity was 1 ml/min. The indexes were recorded at 5, 10, 15, 20, 30, 45, 60, 90 and 120 mins after drug administration. At the end of experiment, the hearts were excised and weighted. The myocardial blood flow for per hectogram (CF), coronary resistance (CR), cardiac index (CI), left ventricular work (LVW) and total peripheral resistance (TPR) were calculated according to the following formulae: CF=CBF×[…]/heart weight CR=MAP/CF CI=CO/0.11×(body weight)^2/3 LVW=CO×(MAP−5)×1.052×0.0136 TPR=MAP×79.92/CO
Data are expressed as mean±SD ( x±s), the paired t-test was used to compare the significance between before and after administration, the unpaired t-test was adopted for comparison between groups.

With `CC(C)(O)[C@@H]1CC[C@](C)([C@H]2[C@@H](O)C[C@@]3(C)[C@@H]4C[C@H](O[C@@H]5O[C@H](CO)[C@@H](O)[C@H](O)[C@H]5O)[C@H]5C(C)(C)[C@@H](O[C@@H]6OC[C@@H](O)[C@H](O)[C@H]6O)CC[C@@]56C[C@@]46CC[C@]23C)O1` [astragaloside IV, reference compound] the “+LVdp/dtmax” value was “significantly increased”, the “CO, CI and TPR” value was “no significant effect” and the LVEDP was “significantly decreased”. For the same molecule, the “LVSP, LVW and −LVdp/dtmax” value was “no significant change”, the CF (5 min after administration) was 57.2 ± 14.0 ml/min/100 g and the “CF change vs before administration” value (5 min after administration) was “(0.2 ± 3.5) ml/min/100 g”. For the same molecule, the CI (5 min after administration) was 2.20 ± 0.59 L/min/m^2, the “CI change vs before administration” value (5 min after administration) was “(0.06 ± 0.10) L/min/m^2” and the CO (5 min after administration) was 1.23 ± 0.36 L/min. The “CO change vs before administration” value (5 min after administration) was “(0.03 ± 0.05) L/min”, the CR (5 min after administration) was 1.36 ± 0.47 mmHg/ml/min/100 g and the “CR change vs before administration” value (5 min after administration) was “(−0.05 ± 0.07) mmHg/ml/min/100 g”. For the same molecule, the LVEDP (5 min after administration) was 1.6 ± 1.4 mmHg, the “LVEDP change vs before administration” value (5 min after administration) was “(−0.80 ± 0.81) mmHg” and the LVP (5 min after administration) was 104 ± 10 mmHg. The “LVP change vs before administration” value (5 min after administration) was “(1.1 ± 6.5) mmHg”, the LVW (5 min after administration) was 1.22 ± 0.47 kg · m and the “LVW change vs before administration” value (5 min after administration) was “(0.01 ± 0.05) kg · m”. The TPR (5 min after administration) was 5046 ± 1572 dyn · s/cm^5, the “TPR change vs before administration” value (5 min after administration) was “(−178 ± 384) dyn · s/cm^5” and the dp/dt (5 min after administration) was 1082 ± 176 mmHg/s. For the same molecule, the “dp/dt change vs before administration” value (5 min after administration) was “(27 ± 75) mmHg/s”, the “−dp/dt” value (5 min after administration) was −878 ± 179 mmHg/s and the “−dp/dt change vs before administration” value (5 min after administration) was “(−43 ± 104) mmHg/s”. The CF (10 min after administration) was 59.0 ± 20.5 ml/min/100 g, the “CF change vs before administration” value (10 min after administration) was “(2.0 ± 6.5) ml/min/100 g” and the CI (10 min after administration) was 2.21 ± 0.52 L/min/m^2. For the same molecule, the “CI change vs before administration” value (10 min after administration) was “(0.07 ± 0.08) L/min/m^2”, the CO (10 min after administration) was 1.24 ± 0.32 L/min and the “CO change vs before administration” value (10 min after administration) was “(0.04 ± 0.05) L/min”. The CR (10 min after administration) was 1.39 ± 0.45 mmHg/ml/min/100 g, the “CR change vs before administration” value (10 min after administration) was “(−0.01 ± 0.12) mmHg/ml/min/100 g” and the LVEDP (10 min after administration) was 1.7 ± 1.3 mmHg. The “LVEDP change vs before administration” value (10 min after administration) was “(−0.73 ± 0.54) mmHg”, the LVP (10 min after administration) was 105 ± 10 mmHg and the “LVP change vs before administration” value (10 min after administration) was “(2.5 ± 11.7) mmHg”. For the same molecule, the LVW (10 min after administration) was 1.26 ± 0.39 kg · m, the “LVW change vs before administration” value (10 min after administration) was “(0.05 ± 0.13) kg · m” and the TPR (10 min after administration) was 5162 ± 1495 dyn · s/cm^5. For the same molecule, the “TPR change vs before administration” value (10 min after administration) was “(−62 ± 517) dyn · s/cm^5”, the dp/dt (10 min after administration) was 1141 ± 136 mmHg/s and the “dp/dt change vs before administration” value (10 min after administration) was “(86 ± 61) mmHg/s”. For the same molecule, the “−dp/dt” value (10 min after administration) was −882 ± 163 mmHg/s, the “−dp/dt change vs before administration” value (10 min after administration) was “(−46 ± 118) mmHg/s” and the CF (15 min after administration) was 57.0 ± 22.3 ml/min/100 g. The “CF change vs before administration” value (15 min after administration) was “(0.0 ± 7.2) ml/min/100 g”, the CI (15 min after administration) was 2.16 ± 0.51 L/min/m^2 and the “CI change vs before administration” value (15 min after administration) was “(0.02 ± 0.07) L/min/m^2”. For the same molecule, the CO (15 min after administration) was 1.21 ± 0.30 L/min, the “CO change vs before administration” value (15 min after administration) was “(0.01 ± 0.04) L/min” and the CR (15 min after administration) was 1.46 ± 0.50 mmHg/ml/min/100 g. For the same molecule, the “CR change vs before administration” value (15 min after administration) was “(0.06 ± 0.15) mmHg/ml/min/100 g”, the LVEDP (15 min after administration) was 1.0 ± 1.2 mmHg and the “LVEDP change vs before administration” value (15 min after administration) was “(−1.40 ± 0.54) mmHg”. The LVP (15 min after administration) was 103 ± 12 mmHg, the “LVP change vs before administration” value (15 min after administration) was “(−0.3 ± 12.2) mmHg” and the LVW (15 min after administration) was 1.22 ± 0.35 kg · m. The “LVW change vs before administration” value (15 min after administration) was “(0.01 ± 0.16) kg · m”, the TPR (15 min after administration) was 5319 ± 1695 dyn · s/cm^5 and the “TPR change vs before administration” value (15 min after administration) was “(95 ± 662) dyn · s/cm^5”. For the same molecule, the dp/dt (15 min after administration) was 1167 ± 157 mmHg/s, the “dp/dt change vs before administration” value (15 min after administration) was “(112 ± 31) mmHg/s” and the “−dp/dt” value (15 min after administration) was −847 ± 141 mmHg/s. For the same molecule, the “−dp/dt change vs before administration” value (15 min after administration) was “(−12 ± 124) mmHg/s”, the CF (20 min after administration) was 59.1 ± 21.2 ml/min/100 g and the “CF change vs before administration” value (20 min after administration) was “(2.1 ± 7.3) ml/min/100 g”. For the same molecule, the CI (20 min after administration) was 2.15 ± 0.44 L/min/m^2, the “CI change vs before administration” value (20 min after administration) was “(0.00 ± 0.10) L/min/m^2” and the CO (20 min after administration) was 1.20 ± 0.27 L/min. The “CO change vs before administration” value (20 min after administration) was “(0.00 ± 0.06) L/min”, the CR (20 min after administration) was 1.37 ± 0.42 mmHg/ml/min/100 g and the “CR change vs before administration” value (20 min after administration) was “(−0.03 ± 0.16) mmHg/ml/min/100 g”. The LVEDP (20 min after administration) was 1.0 ± 1.1 mmHg, the “LVEDP change vs before administration” value (20 min after administration) was “(−1.46 ± 0.68) mmHg” and the LVP (20 min after administration) was 104 ± 11 mmHg. The “LVP change vs before administration” value (20 min after administration) was “(1.2 ± 16.2) mmHg”, the LVW (20 min after administration) was 1.2 ± 0.31 kg · m and the “LVW change vs before administration” value (20 min after administration) was “(−0.01 ± 0.22) kg · m”. For the same molecule, the TPR (20 min after administration) was 5203 ± 1464 dyn · s/cm^5, the “TPR change vs before administration” value (20 min after administration) was “(−21 ± 735) dyn · s/cm^5” and the dp/dt (20 min after administration) was 1165 ± 112 mmHg/s. The “dp/dt change vs before administration” value (20 min after administration) was “(110 ± 67) mmHg/s”, the “−dp/dt” value (20 min after administration) was −875 ± 105 mmHg/s and the “−dp/dt change vs before administration” value (20 min after administration) was “(−39 ± 142) mmHg/s”. The CF (30 min after administration) was 57.8 ± 16.6 ml/min/100 g, the “CF change vs before administration” value (30 min after administration) was “(0.8 ± 3.2) ml/min/100 g” and the CI (30 min after administration) was 2.08 ± 0.48 L/min/m^2. The “CI change vs before administration” value (30 min after administration) was “(−0.07 ± 0.17 ^ L/min/m^2”, the CO (30 min after administration) was 1.16 ± 0.29 L/min and the “CO change vs before administration” value (30 min after administration) was “(−0.04 ± 0.09) L/min”. For the same molecule, the CR (30 min after administration) was 1.41 ± 0.47 mmHg/ml/min/100 g, the “CR change vs before administration” value (30 min after administration) was “(0.00 ± 0.13) mmHg/ml/min/100 g” and the LVEDP (30 min after administration) was 1.0 ± 1.4 mmHg. The “LVEDP change vs before administration” value (30 min after administration) was “(−1.44 ± 0.90) mmHg”, the LVP (30 min after administration) was 102 ± 11 mmHg and the “LVP change vs before administration” value (30 min after administration) was “(−0.7 ± 13.7) mmHg”. For the same molecule, the LVW (30 min after administration) was 1.19 ± 0.40 kg · m and the “LVW change vs before administration” value (30 min after administration) was “(−0.02 ± 0.15) kg · m”.
